From PMC7015663 (Journal of the American Chemical Society, 2019)

Molecular target: T1, RNase A (Bos taurus, UniProt P61823)
T1 sequence (P61823 27-150): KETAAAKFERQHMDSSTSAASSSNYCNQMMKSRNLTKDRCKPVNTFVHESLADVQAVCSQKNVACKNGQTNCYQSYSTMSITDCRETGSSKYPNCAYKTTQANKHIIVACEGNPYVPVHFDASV
Experiment: not given
Details: ref [7]; cited from earlier work

Row | SMILES | Ki
1 | Nc1ncnc2c1ncn2[C@@H]1O[C@H](COP(=O)(O)OP(=O)(O)O)[C@@H](OP(=O)(O)O)[C@H]1O [ppAp] | 0.24 µM
2 | Nc1ncnc2c1ncn2C1OC(COP(=O)(O)OP(=O)(O)OC2CC(n3ccc(=O)[nH]c3=O)OC2COP(=O)(O)O)C(OP(=O)(O)O)C1O (stereo not drawn) [pdUppAp] | 0.027 µM
3 | Cc1cn(C2CC(OP(=O)(O)OP(=O)(O)OCC3OC(n4cnc5c(N)ncnc54)C(O)C3OP(=O)(O)O)C(COP(=O)(O)O)O2)c(=O)[nH]c1=O (stereo not drawn) [pdTppAp] | 0.041 µM
4 | Nc1ncnc2c1ncn2[C@@H]1O[C@H](COP(=O)(O)OP(=O)(O)O[C@H]2C[C@H](n3ccc(=O)[nH]c3=O)O[C@@H]2CO)[C@@H](OP(=O)(O)O)[C@H]1O [dUppAp] | 0.12 µM
5 | Cc1cn([C@H]2C[C@H](OP(=O)(O)OP(=O)(O)OC[C@H]3O[C@@H](n4cnc5c(N)ncnc54)C[C@@H]3O)[C@@H](CO)O2)c(=O)[nH]c1=O [TppdA] | 4 µM

Same assay, conditions: ref [10]; cited from earlier work

Row | SMILES | Ki
6 | Nc1ncnc2c1ncn2[C@@H]1O[C@H](COP(=O)(O)OP(=O)(O)OP(=O)(O)OP(=O)(O)OC[C@H]2O[C@@H](n3cnc4c(N)ncnc43)[C@H](O)[C@@H]2O)[C@@H](O)[C@H]1O [Ap4A] | 2.6 µM
7 | Nc1ncnc2c1ncn2[C@@H]1O[C@H](COP(=O)(O)OP(=O)(O)OP(=O)(O)O)[C@@H](O)[C@H]1O [p3A] | 0.86 µM
8 | Nc1ncnc2c1ncn2[C@@H]1O[C@H](COP(=O)(O)OP(=O)(O)OP(=O)(O)OP(=O)(O)OP(=O)(O)OC[C@H]2O[C@@H](n3cnc4c(N)ncnc43)[C@H](O)[C@@H]2O)[C@@H](O)[C@H]1O [Ap5A] | 0.23 µM
9 | Nc1ncnc2c1ncn2[C@@H]1O[C@H](COP(=O)(O)OP(=O)(O)OP(=O)(O)OC[C@H]2O[C@@H](n3cnc4c(N)ncnc43)[C@H](O)[C@@H]2O)[C@@H](O)[C@H]1O [Ap3A] | 29 µM

Same assay, conditions: ref [40]; cited from earlier work

Row | SMILES | Ki
10 | O=P(O)(O)OP(=O)(O)O [P2i, pyrophosphate] | 170 µM
11 | O=P(O)(O)O [Pi, orthophosphate] | 4600 µM

Same assay, conditions: ref [41]; cited from earlier work

Row | SMILES | Ki
12 | Nc1ncnc2c1ncn2[C@@H]1O[C@H](COP(=O)(O)OP(=O)(O)O)[C@@H](O)[C@H]1O [p2A] | 1.2 µM

Same assay, conditions: ref [42]; cited from earlier work

Row | SMILES | Ki
13 | O=c1ccn([C@@H]2O[C@H](COP(=O)(O)O)[C@@H](O)[C@H]2O)c(=O)[nH]1 [pU] | 4000 µM

Same assay, conditions: ref [43]; cited from earlier work

Row | SMILES | Ki
14 | O=c1ccn([C@@H]2O[C@H](COP(=O)(O)OP(=O)(O)O)[C@@H](O)[C@H]2O)c(=O)[nH]1 [p2U] | 650 µM

Molecular target: T1, RNase A
Experiment: Inhibition kinetics of RNase A using a fluorogenic substrate
Type: biochemical, bovine
Details: ± standard error of fitting one-site binding equation; this work

Row | Ki | SMILES
15 | 8.3 ± 0.3 µM | O=c1ccn([C@@H]2O[C@H](COP(=O)(O)OP(=O)(O)OP(=O)(O)O)[C@@H](O)[C@H]2O)c(=O)[nH]1 [p3U]
16 | 1.8 ± 0.1 µM | O=c1ccn([C@@H]2O[C@H](COP(=O)(O)OP(=O)(O)OP(=O)(O)OP(=O)(O)O)[C@@H](O)[C@H]2O)c(=O)[nH]1 [p4U, uridine tetraphosphate]
17 | 6.2 ± 0.1 µM | O=P1(O)OP(=O)(O)OP(=O)(O)OP(=O)(O)OP(=O)(O)OP(=O)(O)O1 [cP6i, hexametaphosphate]
18 | 0.48 ± 0.03 µM | Nc1ncnc2c1ncn2C1OC(COP(=O)(O)OP2(=O)OP(=O)(O)OP(=O)(O)OP(=O)(O)O2)C(O)C1O (stereo not drawn) [cp4pA]
19 | 2.1 ± 0.2 µM | Nc1ncnc2c1ncn2[C@@H]1O[C@H](COP(=O)(O)OP(=O)(O)OP(=O)(O)OP(=O)(O)O)[C@@H](O)[C@H]1O [p4A, adenosine tetraphosphate]
20 | 170 ± 6 µM | Nc1ncnc2c1ncn2[C@@H]1O[C@H](COP(=O)(O)O)[C@@H](O)[C@H]1O [pA]
21 | 960 ± 80 µM | O=P1(O)OP(=O)(O)OP(=O)(O)O1 [cP3i, trimetaphosphate]
22 | 23 ± 1 µM | O=P(O)(O)OP(=O)(O)OP(=O)(O)O [P3i]
23 | 0.98 ± 0.07 µM | O=c1ccn(C2OC(COP(=O)(O)OP3(=O)OP(=O)(O)OP(=O)(O)OP(=O)(O)O3)C(O)C2O)c(=O)[nH]1 (stereo not drawn) [cp4pU]
24 | 1.4 ± 0.06 µM | Nc1ncnc2c1ncn2[C@@H]1O[C@H](COP(=O)(O)OP(=O)(O)OP(=O)(O)OP(=O)(O)OP(=O)(O)O)[C@@H](O)[C@H]1O [p5A]
25 | 0.068 ± 0.007 µM | O=c1ccn([C@@H]2O[C@H](COP(=O)(O)OP(=O)(O)OP(=O)(O)OP(=O)(O)OP(=O)(O)O)[C@@H](O)[C@H]2O)c(=O)[nH]1 [p5U]
26 | 30 ± 0.8 µM | O=P1(O)OP(=O)(O)OP(=O)(O)OP(=O)(O)O1 [cP4i, tetrametaphosphate]

Molecular target: T1, RNase A
Experiment: Salt dependence of inhibition/binding of RNase A
Type: biochemical, bovine
Details: salt dependence of inhibition (Figure S30)

Row | δlogKd/δlog[Na+] | SMILES
27 | 3.2 | O=c1ccn([C@@H]2O[C@H](COP(=O)(O)OP(=O)(O)OP(=O)(O)OP(=O)(O)OP(=O)(O)O)[C@@H](O)[C@H]2O)c(=O)[nH]1 [p5U]
